Results taken from the supplement of paper PMC10307832.

Legend:
Assay in all cases: relative viability (nuclei count vs DMSO), 5 days (fraction); higher = more cells survive
[1] = compound: C1=CC=C(C(=C1)C2=CC=C(C=C2)C3=CSC4=C3C(=C(C(=O)N4)C#N)O)O + CC1(C)CCC(c2ccc(Cl)cc2)=C(CN2CCN(c3ccc(C(=O)NS(=O)(=O)c4ccc(N[C@H](CCN5CCOCC5)CSc5ccccc5)c(S(=O)(=O)C(F)(F)F)c4)cc3)CC2)C1 [Navitoclax] (partner 0.5 µM)
Method in brief: (§1)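 Five library-drug doses in √10 steps were combined with a fixed anchor-drug dose, or a single drug was given alone, by pin tool to lung cancer cell lines in 1536-well plates the day after seeding. Nuclei were stained and counted after 5 days. Relative viability is the nuclei count in treated wells over that in vehicle wells, taken as the median of duplicate plates.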

[2] = compound: C1=CC=C(C(=C1)C2=CC=C(C=C2)C3=CSC4=C3C(=C(C(=O)N4)C#N)O)O + CS(=O)(=O)CCNCc1ccc(-c2ccc3ncnc(Nc4ccc(OCc5cccc(F)c5)c(Cl)c4)c3c2)o1 [Lapatinib] (partner 2 µM)
Method in brief: as §1

TGX 221 + Vorinostat = compound: CC1=CN2C(=O)C=C(N=C2C(=C1)C(C)NC3=CC=CC=C3)N4CCOCC4 [TGX 221] + O=C(CCCCCCC(=O)Nc1ccccc1)NO [Vorinostat] (partner 1 µM)
Method in brief: as §1

Ricolinostat + Dasatinib = compound: O=C(CCCCCCNC(=O)c1cnc(N(c2ccccc2)c2ccccc2)nc1)NO [Ricolinostat] + Cc1nc(Nc2ncc(C(=O)Nc3c(C)cccc3Cl)s2)cc(N2CCN(CCO)CC2)n1 [Dasatinib] (partner 0.075 µM)
Method in brief: as §1

Cell Line | relative viability ([1]; first compound 0.08 µM) | relative viability ([1]; first compound 0.253 µM) | relative viability ([1]; first compound 0.8 µM) | relative viability ([1]; first compound 2.53 µM) | relative viability ([1]; first compound 8 µM) | relative viability ([2]; first compound 0.08 µM) | relative viability ([2]; first compound 0.253 µM) | relative viability ([2]; first compound 0.8 µM) | relative viability ([2]; first compound 2.53 µM) | relative viability ([2]; first compound 8 µM) | relative viability (TGX 221 + Vorinostat; first compound 0.08 µM) | relative viability (TGX 221 + Vorinostat; first compound 0.253 µM) | relative viability (TGX 221 + Vorinostat; first compound 0.8 µM) | relative viability (TGX 221 + Vorinostat; first compound 2.53 µM) | relative viability (TGX 221 + Vorinostat; first compound 8 µM) | relative viability (Ricolinostat + Dasatinib; first compound 0.08 µM) | relative viability (Ricolinostat + Dasatinib; first compound 0.253 µM) | relative viability (Ricolinostat + Dasatinib; first compound 0.8 µM) | relative viability (Ricolinostat + Dasatinib; first compound 2.53 µM)
LOU-NH91 | 0.693 | 0.722 | 0.658 | 0.638 | 0.551 | 0.751 | 0.807 | 0.788 | 0.601 | 0.738 | 0.888 | 0.963 | 0.957 | 0.902 | 0.9 | 0.453 | 0.543 | 0.558 | 0.533
COR-L23 | 1.09 | 0.983 | 1.21 | 1.06 | 0.762 | 0.772 | 1.22 | 0.834 | 1.11 | 0.712 | 0.425 | 0.409 | 0.436 | 0.469 | 0.336 | 0.373 | 0.477 | 0.471 | 0.242
EPLC-272H | – | 1.11 | 1.17 | 1.12 | 0.744 | – | 0.924 | 0.849 | 0.897 | 1.01 | 0.47 | 0.358 | 0.469 | 0.426 | 0.369 | 0.308 | 0.387 | 0.336 | 0.212
H3255 | 0.534 | 0.431 | 0.53 | 0.602 | 0.444 | 0.231 | 0.292 | 0.231 | 0.235 | 0.25 | 0.779 | 0.823 | 0.816 | 0.782 | 0.845 | 0.347 | 0.308 | 0.318 | 0.308
NCI-H1944 | 1.05 | 1.03 | 1.02 | 1.1 | 1.08 | 0.69 | 0.853 | 0.883 | 0.67 | 0.788 | – | 0.547 | 0.488 | 0.476 | 0.488 | 0.189 | 0.212 | 0.194 | 0.201
NCI-H23 | 0.883 | 0.746 | 1 | 0.754 | 0.468 | 1.36 | 1.09 | 1.19 | 1.08 | 0.843 | 0.638 | 0.625 | 0.579 | 0.498 | 0.659 | 0.667 | 0.786 | 0.698 | 0.47
HCC-366 | 0.959 | 1.18 | 1.05 | 1.11 | 0.501 | 1.24 | 0.948 | 1.24 | 1.01 | 1.01 | 0.357 | 0.327 | 0.365 | 0.292 | 0.351 | 0.487 | 0.613 | 0.576 | 0.451
NCI-H2405 | 0.924 | 1.04 | 0.887 | 0.776 | 0.767 | 1.01 | 1.12 | 1.11 | 0.984 | 1.04 | 0.87 | 0.928 | 0.941 | 0.92 | 0.895 | 0.229 | 0.205 | 0.183 | 0.193
NCI-H322M | 1.35 | 1.24 | 1.03 | 1.32 | 1.09 | 0.621 | 0.616 | 0.569 | 0.563 | 0.589 | 0.865 | 0.876 | 0.839 | 0.872 | 0.718 | – | 0.275 | 0.26 | 0.255
